Measured values taken from patent US20240366539A1, “METHODS FOR TREATING AUTISM SPECTRUM DISORDERS” (INSTITUT NATIONAL DE LA SANTÉ ET DE LA RECHERCHE MÉDICALE, priority 2021, published 2024).

Key:
Format in all cases: in vivo, mouse
Fmr1^−/− mice [1] = assay: Three-chamber social preference test; settings: chronic NaBr 250 mg/kg once daily
Procedure: (§1) Mice were treated with vehicle (NaCl 0.9%; ip, 10 or 20 ml/kg), NaBr (Sigma-Aldrich, Saint-Quentin Fallavier, France) administered either chronically (once a day, 10, 30, 70, 125, 250 and 500 mg/kg; i.p. or per os, in a volume of 20 ml/kg—except for combination with VU0155041: […]) or acutely (250 mg/kg, 20 ml/kg), KBr (Sigma-Aldrich, Saint-Quentin Fallavier, France; 145 mg/kg; i.p., 20 ml/kg), bumetanide (R&D systems, Minneapolis, USA, 0.5 and 2 mg/kg; i.p., 20 ml/kg) or VU0155041 (Cayman Chemicals, Ann Arbor, USA, once a day, i.p., 1 mg/kg, 10 ml/kg). […] When treatment was given chronically, behavioral testing started 8 days after beginning of daily administration. Treatment was maintained for 8 to 18 consecutive days (see timelines in FIGS. 1 and 4), allowing thorough behavioral phenotyping. On testing days, or when treatment was given acutely, drugs (or vehicle) were administered 30 min before behavioral assays.
(§2) Three-chamber social preference test. The test apparatus consisted of a transparent acrylic box (exterior walls blinded with black plastic film); partitions divided the box into three equal chambers (40×20×22.5 cm). Two sliding doors (8×5 cm) allowed transitions between chambers. Cylindrical wire cages (18×9 cm, 0.5 cm diameter-rods spaced 1 cm apart) were used to contain the mouse interactor and object (soft-toy mouse). The test was performed in low-light conditions (15 lx) to minor anxiety. Stimulus wild-type mice were habituated to confinement in wire cages for 2 days before the test (20 min/day). On testing day, the experimental animal was introduced to the middle chamber and allowed to explore the whole apparatus for a 10-min habituation phase (wire cages empty) after the sliding doors were raised. The experimental mouse was then confined back in the middle-chamber while the experimenter introduced an unfamiliar wild type age and sex-matched animal into a wire cage in one of the side-chambers and a soft toy mouse (8×10 cm) in the second wire cage as a control for novelty. Then the experimental mouse was allowed to explore the apparatus for a 10-min interaction phase. The time spent in each chamber, the time spent in nose contact with each wire cage (empty: habituation; containing a mouse or a toy: interaction), as well as the number of these nose contacts were scored a posteriori on video recordings using an ethological keyboard (Labwatcher®, View Point, Lyon, France) by trained experimenters. […] The relative position of stimulus mice (versus toy) was counterbalanced between groups.
(§3) To this purpose, we evaluated the effects of chronic NaBr administration at the dose of 250 mg/kg on autism-sensitive behaviors in these lines (FIG. 3A).

Shank3^Δex13-16−/− mice [2] = assay: Three-chamber social preference test; settings: Shank3Δex13-16−/− mice; chronic NaBr 250 mg/kg once daily
Procedure: as §1, §2, §3

Oprm1^−/− mice = assay: Direct social interaction test
Procedure: as §1
When assessing effects of chronic administration, experiments were performed successively (timelines in FIGS. 1 and 4) (51, 60). Testing order was chosen to minimize the incidence of anxiety on later assays. Direct social interaction and novelty suppressed feeding were performed in 4 equal square arenas (open fields, 50×50 cm) separated by 35 cm-high opaque grey Plexiglas walls over a white Plexiglas platform (View Point, Lyon, France). Stimulus mice used for the three-chamber test were 8-14-week-old grouped-housed male or female wild-type mice, socially naive to the experimental animals.
Direct social interaction test. On testing day, a pair of unfamiliar mice (not cage mates, age-, sex- and treatment-matched) was introduced in each arena for 10 min (15 lx). Each arena received a black plastic floor (transparent to infrared). […] The mean duration of nose and paw contacts was calculated from previous data (61-63).

Fmr1^−/− mice [3] = assay: Motor stereotypies; settings: chronic NaBr 250 mg/kg once daily
Procedure: as §1
(§4) Motor stereotypies. To detect motor stereotypies in mutant versus wild-type animals, mice were individually placed in clear standard home cages (21×11×17 cm) filled with 3-cm deep fresh sawdust for 10 min (64). Light intensity was set at 30 lux. Trained experimenters scored numbers of head shakes, as well as rearing, burying, grooming, circling episodes and total time spent burying by direct observation.
as §3

Shank3^Δex13-16−/− mice [4] = assay: Motor stereotypies; settings: Shank3Δex13-16−/− mice; chronic NaBr 250 mg/kg once daily
Procedure: as §1, §4, §3

[5] = Oprm1−/− mice, chronic once daily, NaBr 10-500 mg/kg (effect from 125 mg/kg) or bumetanide 0.5 and 2 mg/kg, D9
[6] = Oprm1−/− mice, one week after cessation of chronic treatment (NaBr over 70 mg/kg, highest doses; bumetanide depending on the dose)

**Q.** For `[Br-].[Na+]` [NaBr, sodium bromide], which “duration of nose contacts with the mouse versus the object” value (Fmr1^−/− mice [1]) is on record?
**A.** making longer nose contacts with the mouse versus the object

**Q.** And the “number of nose contacts with either stimulus” value (Fmr1^−/− mice [1])?
**A.** without modifying the number of nose contacts

**Q.** And the preference ratio (Fmr1^−/− mice [1])?
**A.** normalized their preference ratio

**Q.** What about the “time exploring the mouse versus the object” value (Fmr1^−/− mice [1]) of the same compound?
**A.** restored a preference for spending more time exploring the mouse

**Q.** What about the “duration of nose contacts with the mouse versus the toy” value (Shank3^Δex13-16−/− mice [2]) of the same compound?
**A.** made longer nose contacts with their congener versus the toy

**Q.** What about the “number of nose contacts” value (Shank3^Δex13-16−/− mice [2]) of the same compound?
**A.** no change in the number of nose contacts

**Q.** What about the preference ratio (Shank3^Δex13-16−/− mice [2]) of the same compound?
**A.** increased preference ratio

**Q.** And the “time in contact with the mouse versus the toy” value (Shank3^Δex13-16−/− mice [2])?
**A.** spent more time in contact with the mouse

**Q.** What about the “social interaction in wild-type controls” value (Oprm1^−/− mice; Oprm1+/+ mice, chronic once daily, NaBr 10-500 mg/kg or bumetanide 0.5 and 2 mg/kg) of the same compound?
**A.** had no detectable effect in Oprm1^+/+ mice

**Q.** And the “social interaction behavioral parameters” value (Oprm1^−/− mice; Oprm1−/− mice, NaBr 70 mg/kg, VU0155041 1 mg/kg, alone or combined, once daily, chronic)?
**A.** had no detectable effects on behavioral parameters

**Q.** And the social interaction deficit (Oprm1^−/− mice; Oprm1−/− mice, chronic once daily i.p., NaBr 10-500 mg/kg or bumetanide 0.5 and 2 mg/kg, D9)?
**A.** from the dose of 125 mg/kg dose-dependently relieved this deficit

**Q.** What about the “number of nose contacts” value (Oprm1^−/− mice; Oprm1−/− mice, chronic once daily, NaBr 10-500 mg/kg (effect from 125 mg/kg) or bumetanide 0.5 and 2 mg/kg (effect at low dose), D9) of the same compound?
**A.** restored number

**Q.** What about the “mean duration of nose contacts” value (Oprm1^−/− mice; [5]) of the same compound?
**A.** restored

**Q.** And the “mean duration of paw contacts” value (Oprm1^−/− mice; [5])?
**A.** normalized

**Q.** And the “number of paw contacts” value (Oprm1^−/− mice; [5])?
**A.** normalized number

**Q.** And the “grooming after social contact” value (Oprm1^−/− mice; Oprm1−/− mice, chronic once daily, NaBr 10-500 mg/kg or bumetanide 0.5 and 2 mg/kg, D9)?
**A.** normalized the frequency of grooming after social contact in mutants, since the dose of 70 mg/kg

**Q.** What about the “duration of nose contacts” value (Oprm1^−/− mice; [6]) of the same compound?
**A.** preserved restoration of the duration of nose contacts

**Q.** And the “grooming after social contact” value (Oprm1^−/− mice; [6])?
**A.** maintained suppression of grooming after social contact

**Q.** What about the social interaction parameters (Oprm1^−/− mice; Oprm1−/− mice, single acute injection of NaBr 250 mg/kg, data not shown) of the same compound?
**A.** had little effect on social interaction parameters

**Q.** What about the “relieving effects on social interaction” value (Oprm1^−/− mice; Oprm1−/− mice, two weeks after cessation of chronic NaBr, data not shown) of the same compound?
**A.** had mostly vanished after two weeks

**Q.** What about the “number of following episodes” value (Oprm1^−/− mice; chronic once daily, NaBr 10-500 mg/kg (both mouse lines) or bumetanide (at low dose), D9) of the same compound?
**A.** increased the number of following episodes in both mouse lines

**Q.** What about the circling episodes (Fmr1^−/− mice [3]) of the same compound?
**A.** normalized all these parameters to WT levels

**Q.** And the head shakes (Fmr1^−/− mice [3])?
**A.** normalized all these parameters to WT levels

**Q.** And the circling episodes (Shank3^Δex13-16−/− mice [4])?
**A.** normalized all these parameters to WT levels

**Q.** And the head shakes (Shank3^Δex13-16−/− mice [4])?
**A.** normalized all these parameters to WT levels

**Q.** And the spontaneous grooming (Shank3^Δex13-16−/− mice [4])?
**A.** normalized all these parameters to WT levels
